Assay type in all cases: cell-based, S. cerevisiae
Holding throughout (details): 1 uM small molecule, difference to activity without small molecule, average of two trials

Assay [1] concerns the target T1, LexA (GSG)2eDHFR / B42 (GSG)rGR2 (UniProt P06536+P0ABQ4, C656G/F620S).
T1 construct: rat Glucocorticoid Receptor (aa 524-795) with point mutations; expressed in transfected cells; host or cells: S. cerevisiae FY250
T1 sequence (P0ABQ4 1-159): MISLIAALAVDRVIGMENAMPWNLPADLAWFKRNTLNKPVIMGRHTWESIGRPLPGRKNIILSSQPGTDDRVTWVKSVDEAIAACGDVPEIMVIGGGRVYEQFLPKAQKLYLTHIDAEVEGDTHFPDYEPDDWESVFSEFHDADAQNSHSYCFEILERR
T1 sequence (P06536 524-795 F620S/C656G limits assumed): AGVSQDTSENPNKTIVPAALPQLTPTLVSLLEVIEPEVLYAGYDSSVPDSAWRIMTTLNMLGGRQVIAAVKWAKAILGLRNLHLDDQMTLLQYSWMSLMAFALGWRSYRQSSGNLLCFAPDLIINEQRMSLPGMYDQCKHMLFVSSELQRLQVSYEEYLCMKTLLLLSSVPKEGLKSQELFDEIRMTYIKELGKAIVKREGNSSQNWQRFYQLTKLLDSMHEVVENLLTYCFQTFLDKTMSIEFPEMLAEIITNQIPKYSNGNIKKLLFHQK
Kind of assay: β-galactosidase activity assay, strain V501Y. From the text:
(§1) Table III explains the components of each strain. Each strain was constructed from the parent yeast strain FY250 and also contains the pMW106 plasmid, which has the LacZ reporter gene that is turned on only in when the LexA DNA binding domain and the B42 activation are brought in tot he vicinity of each other. We use several different strains because we use DHFR from two different species, mDHFR is from murine, while eDHFR is from E. coli. We are asl oable to switch the small moleculebinding domains. For example, the strain containing LexA-eDHFR with B42-rGH2 is a different strain and behaves differently from the strain containing LexA-rGR2 with B42-eDHFR. We also put in short 6 amino acid linkers between the two domains of our protein chimeras and thus these are different strain as well.
(§2) The results in Table IV are averages of two separate trials. Each strain was examined with small molecules and without small molecules. The absolute activity is given as the β-galactisidase activity […]. The average β-galactosidse activity for a strain without small molecule (i.e. the negative control) was about 100 β-galactosidase units.

Assay [2] has as its target T2, LexA mDHFR / B42 (GSG)rGR2 (UniProt P00375+P06536, C656G/F620S).
T2 construct: rat Glucocorticoid Receptor (aa 524-795) with point mutations; expressed in transfected cells; host or cells: S. cerevisiae FY250
T2 sequence (P00375 1-187): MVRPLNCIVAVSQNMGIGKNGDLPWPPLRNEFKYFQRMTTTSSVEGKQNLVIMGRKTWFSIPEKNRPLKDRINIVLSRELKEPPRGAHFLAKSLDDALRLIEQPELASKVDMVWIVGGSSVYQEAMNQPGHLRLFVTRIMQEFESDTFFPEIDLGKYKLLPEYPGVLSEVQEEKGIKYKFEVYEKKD
T2 sequence (P06536 524-795 F620S/C656G limits assumed): T1 sequence (P06536 524-795 F620S/C656G limits assumed)
In words: β-galactosidase activity assay, strain V497Y.
Text: as §1, §2

In assay [3] the target is T3, LexA eDHFR / B42 gly6rGR2 (UniProt P06536+P0ABQ4, C656G/F620S).
T3 construct: rat Glucocorticoid Receptor (aa 524-795) with point mutations; expressed in transfected cells; host or cells: S. cerevisiae FY250
T3 sequence (P0ABQ4 1-159): T1 sequence (P0ABQ4 1-159)
T3 sequence (P06536 524-795 F620S/C656G limits assumed): T1 sequence (P06536 524-795 F620S/C656G limits assumed)
In words: β-galactosidase activity assay, strain V375Y.
Text: as §1, §2

The target in assay [4] is T4, LexA (GSG)2mDHFR / B42 (GSG)rGR2 (UniProt P00375+P06536, C656G/F620S).
T4 construct: rat Glucocorticoid Receptor (aa 524-795) with point mutations; expressed in transfected cells; host or cells: S. cerevisiae FY250
T4 sequence (P00375 1-187): T2 sequence (P00375 1-187)
T4 sequence (P06536 524-795 F620S/C656G limits assumed): T1 sequence (P06536 524-795 F620S/C656G limits assumed)
In words: β-galactosidase activity assay, strain V504Y.
Text: as §1, §2

Assay [5] addresses T5, LexA (GSG)2rGR2 / B42 (GSG)2eDHFR (UniProt P06536+P0ABQ4, C656G/F620S).
T5 construct: rat Glucocorticoid Receptor (aa 524-795) with point mutations; expressed in transfected cells; host or cells: S. cerevisiae FY250
T5 sequence (P06536 524-795 F620S/C656G limits assumed): T1 sequence (P06536 524-795 F620S/C656G limits assumed)
T5 sequence (P0ABQ4 1-159): T1 sequence (P0ABQ4 1-159)
Kind of assay: β-galactosidase activity assay, strain V510Y.
Text: as §1, §2

Assay [6] has as its target T6, LexA (GSG)2rGR2 / B42 mDHFR (UniProt P00375+P06536, C656G/F620S).
T6 construct: expressed in transfected cells; host or cells: S. cerevisiae FY250 with pMW106 lacZ reporter
T6 sequence (P06536 524-795 F620S/C656G limits assumed): T1 sequence (P06536 524-795 F620S/C656G limits assumed)
T6 sequence (P00375 1-187): T2 sequence (P00375 1-187)
Kind of assay: β-galactosidase activity assay, strain V508Y.
Text: as §1, §2

The target in assay [7] is T7, LexA (GSG)2mDHFR / B42 gly6rGR2 (UniProt P00375+P06536, C656G/F620S).
T7 construct: expressed in transfected cells; host or cells: S. cerevisiae FY250 with pMW106 lacZ reporter
T7 sequence (P00375 1-187): T2 sequence (P00375 1-187)
T7 sequence (P06536 524-795 F620S/C656G limits assumed): T1 sequence (P06536 524-795 F620S/C656G limits assumed)
Kind of assay: β-galactosidase activity assay, strain V503Y.
Text: as §1, §2

Assay [8] has as its target T8, LexA eDHFR / B42 rGR2 (UniProt P06536+P0ABQ4, C656G/F620S).
T8 construct: rat Glucocorticoid Receptor (aa 524-795) with point mutations; expressed in transfected cells; host or cells: S. cerevisiae FY250
T8 sequence (P0ABQ4 1-159): T1 sequence (P0ABQ4 1-159)
T8 sequence (P06536 524-795 F620S/C656G limits assumed): T1 sequence (P06536 524-795 F620S/C656G limits assumed)
Kind of assay: β-galactosidase activity assay, strain V493Y.
Text: as §1, §2

The target of assay [9] is T9, LexA eDHFR / B42 (GSG)rGR2 (UniProt P06536+P0ABQ4, C656G/F620S).
T9 construct: rat Glucocorticoid Receptor (aa 524-795) with point mutations; expressed in transfected cells; host or cells: S. cerevisiae FY250
T9 sequence (P0ABQ4 1-159): T1 sequence (P0ABQ4 1-159)
T9 sequence (P06536 524-795 F620S/C656G limits assumed): T1 sequence (P06536 524-795 F620S/C656G limits assumed)
Kind of assay: β-galactosidase activity assay, strain V494Y.
Text: as §1, §2

In assay [10] the target is T10, LexA rGR2 / B42 (GSG)2eDHFR (UniProt P06536+P0ABQ4, C656G/F620S).
T10 construct: expressed in transfected cells; host or cells: S. cerevisiae FY250 with pMW106 lacZ reporter
T10 sequence (P06536 524-795 F620S/C656G limits assumed): T1 sequence (P06536 524-795 F620S/C656G limits assumed)
T10 sequence (P0ABQ4 1-159): T1 sequence (P0ABQ4 1-159)
In words: β-galactosidase activity assay, strain V509Y.
Text: as §1, §2

From patent publication US7419780B2, “Methods and assays for screening protein targets” (The Trustees of Columbia University in the City of New York, priority 2000, dated 2008) come the findings set out here.

As for `C[C@@H]1C[C@H]2C3CCC4=CC(=O)C=C[C@]4(C)[C@@]3(F)[C@@H](O)C[C@]2(C)[C@@]1(O)C(=O)NCCSCCCCCCCCCCSCC[C@H](NC(=O)c1ccc(N(C)Cc2cnc3nc(N)nc(N)c3n2)cc1)C(=O)O` (stereo partly shown) [D10M], the B-gal activity in assay [1] is 2286 β-galactosidase units; in [2], 308 β-galactosidase units; in assay [3], 9993 β-galactosidase units; in assay [4], 556 β-galactosidase units; in assay [5] it was 2314 β-galactosidase units; in [6], 5 β-galactosidase units. Besides, the B-gal activity is listed as 1132 β-galactosidase units in assay [7], 5812 β-galactosidase units in [8], 9398 β-galactosidase units in assay [9] and 2028 β-galactosidase units in assay [10].
